For orientation: EC50 means the concentration giving half of the maximal effect. As usually defined, the Ki is a measure of affinity in units of concentration, obtained from inhibition or displacement. A higher Ki goes with weaker binding.

The values that follow come from US20240391930A1, “SPIROCYCLIC BICYCLIC MODULATORS OF CHOLESTEROL BIOSYNTHESIS AND THEIR USE FOR PROMOTING REMYELINATION” (GENENTECH, INC., priority 2021, published 2024).

One assay deals with EpiSC-derived OPCs. The assay is described as follows: In vitro phenotypic screening of OPCs (MBP high-content imaging). Type of assay: cell-based. The conditions noted are these: Mus musculus, 72 h; percentage of MBP-positive oligodendrocytes, 3 days, 0.5 nM to 1000 nM; read-out: OPC EC50. As to the method: To assess effects of treatments on OPCs, all treatments were assayed in two or more independent platings of epiblast stem cell-derived OPCs (EpiSC). EpiSC-derived OPCs were obtained using in vitro differentiation protocols and culture conditions described previously (Najm et al, 2011, Nature Methods). OPCs were expanded and frozen down in aliquots. OPCs were thawed into growth conditions for at least one passage before use in further assays.
EpiSC-derived OPCs were grown and expanded in poly-L-ornithine (PO) and laminin-coated flasks in N2B27 media (DMEM/F12 (Gibco), N2-MAX (R&D Systems), B-27 (ThermoFisher), and GlutaMax (Gibco)) supplemented with FGF2 ([…], R&D systems, 233-FB-025) and PDGF-AA ([…], R&D systems, 233-AA-050) before harvesting for experiments. The cells were seeded onto poly-L-ornithine or poly-D-lysine coated CellCarrier Ultra plates (PerkinElmer) coated with laminin (Sigma, L2020) at a density of 150,000/cm^2 in N2B27 media without growth factors. For dose-response testing, a 1000× compound stock in dimethyl sulphoxide (DMSO) was added to assay plates, resulting in 8-point dose curves with final concentrations between 1000 nM and 0.5 nM. Positive controls and DMSO vehicle controls were included in each assay plate. Cells were incubated under standard conditions (37° C., 5% CO2) for 3 days and fixed with 4% paraformaldehyde (PFA) in phosphate buffered saline (PBS) for 20 min. Fixed plates were washed with PBS, permeabilized with 0.1% Triton X-100, and blocked with 10% donkey serum (v/v) in PBS for 40 min. Then, cells were labelled with MBP antibodies (Abcam, ab7349; 1:200) for 2 h at room temperature, washed with PBS, and stained with Alexa Fluor conjugated secondary antibodies (1:500) for 45 min. Nuclei were visualized by DAPI staining (Sigma; 1 μg/ml), followed by further PBS washes.
Cells and cell culture plates were imaged on the Operetta High Content Imaging and Analysis system (PerkinElmer). Analysis (PerkinElmer Harmony and Columbus software) began by identifying intact nuclei stained by DAPI. The peri-nuclear region of each cell was then cross-referenced with the […] (MBP) stain to identify oligodendrocyte nuclei, and from this the percentage of oligodendrocytes was calculated.

Assay [1] deals with T1, human emopamil binding protein and human 7-dehydrocholesterol reductase (hEBP-DHCR7) (Homo sapiens, UniProt Q15125).
T1 construct: expressed in transfected cells; host or cells: HEK 293 cells, transient transfection with 2 DNA constructs
The assay is described as follows: hEBP-DHCR7 radioligand filtration binding assay. The conditions noted are these: membranes of HEK293 co-expressing hEBP and DHCR7; [3H] 2-thia-6-azaspiro[3.4]octane radioligand; 8 doses 0.06 to 5000 nM. As to the method:
Membrane Preparation: human emopamil binding protein and human 7-dehydrocholesterol reductase co-expressing cells were generated by transient transfecting host human embryonic kidney (HEK) 293 cells with 2 DNA constructs containing each protein's coding sequence. Cells were suspension cultured at 37° C. with 5% CO2 in […] 293 Expression Medium (Thermofisher). Whole cell membrane was prepared by harvesting the cell pellet, adding cold membrane buffer (50 mM Tris, pH7.5, lx Roche COMPLETE EDTA-free protease inhibitor cocktail) 10 times volume of the cell pellets weight, lysing cell pellet on ice by using Dounce homogenizer, spinning at 200 g 4° C. for 15 min, collecting supernatant and spinning again at 25000 g 4° C. for 50 min, transferring pellet to Dounce homogenizer, re-suspending pellet by homogenizing in membrane buffer on ice to reach ˜25 mg/mL, then keeping whole cell membrane aliquots at −80° C.
Compounds were prepared in a 96-well U bottom plate using an Echo550 machine and 10 mM compound DMSO stock solution, followed by an 8-dose 5-fold serial dilutions protocol with final testing compound concentration ranging from 0.06 to 5000 nM, with DMSO back fill to 100 nL/well and n=2. […] The UniFilter-96 GF/B plates were pre-treated by adding 50 µl/well of 0.3% (v/v) PEI to UniFilter-96 GF/B plates. The plates were sealed and incubated at 4° C. for 3 hrs. Then, the plates were washed with ice-cold assay buffer 3 times. The radioligand binding assay was prepared by adding assay buffer diluted hEBP-DHCR7 membrane at 66.7 μg/ml×150 l/well into the 96-well compound plate to reach 10 μg membrane per well. Then, the assay buffer diluted [3H]—((S)-6-(2-Methyl-3-(6-(trifluoromethyl)pyridin-3-yl)propyl)-2-thia-6-azaspiro[3.4]octane 2,2-dioxide or (R)-6-(2-Methyl-3-(6-(trifluoromethyl)pyridin-3-yl)propyl)-2-thia-6-azaspiro[3.4]octane 2,2-dioxide) was added at 25 nM×50 l/well. Following this, the plate was centrifuged at 1000 rpm for 30 secs. The plate was then sealed and agitated at 600 rpm at 22° C. for 5 min, and then incubated at 22° C. for 3 hrs. The incubation was stopped by transferring the binding solution to the pre-treated UniFilter-96 GF/B plate, vacuum filtrated, and then washed four times with ice-cold assay buffer. Following this, the plates were dried at 37° C. for 45 min. The plates were then sealed at the bottom. 40 µl/well of scintillation cocktail was added to the plates. A MicroBeta2 microplate counter was then used to read the plate and analyze the data. For reference and test compounds, the results are expressed as % Inhibition, using the normalization equation: N=100−100×(U−C2)/(C1−C2), where U is the unknown value, C1 is the average of high controls, and C2 is the average value of low controls. The IC50 was determined by fitting percentage of inhibition as a function of compound concentrations with Hill equation using XLfit. Results are expressed as hEBP-DHCR7 Ki (uM) in Table 4. Ki was calculated as described above; * indicates isolated isomer or isomers, but that the stereochemistry has not been assigned.

For assay [2], the system named is zymostenol accumulation in EpiSC-derived OPCs (EBP). The assay is described as follows: GC/MS-based sterol profiling (zymostenol accumulation). It counts as cell-based. The following applies: Mus musculus, 24 hours, 8 doses from 0.15 nM to 333 nM, read-out: Zymostenol GCMS EC50. Put shortly: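 Zymostenol level is expressed relative to that after 24 h with 100 nM positive-control reference, measured by full-scan GC/MS (m/z 458) with cholesterol-d7 internal standard after BSTFA derivatisation. Cells were EpiSC-derived OPCs, 100,000/well in N2B27 without growth factors, treated 24 h, from two or more independent platings.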

T1 sequence (Q15125 whole entry): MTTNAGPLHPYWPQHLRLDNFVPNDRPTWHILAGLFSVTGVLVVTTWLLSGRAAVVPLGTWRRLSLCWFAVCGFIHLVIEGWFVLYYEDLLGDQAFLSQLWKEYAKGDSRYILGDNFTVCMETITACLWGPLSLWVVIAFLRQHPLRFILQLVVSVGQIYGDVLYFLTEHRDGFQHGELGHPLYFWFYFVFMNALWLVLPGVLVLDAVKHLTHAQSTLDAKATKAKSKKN

Regarding `C[C@H](C(F)F)n1nc(C(F)(F)F)cc1[C@H]1[C@@H]2C[C@@H](N3CCC4(CC3)CS(=O)(=O)C4)C[C@@H]21` (racemic) [Compound 70*, 7-((1R,3S,5S,6r)-6-(1-((R)-1,1-difluoropropan-2-yl)-3-(trifluoromethyl)-1H-pyrazol-5-yl)bicyclo[3.1.0]hexan-3-yl)-2-thia-7-azaspiro[3.5]nonane 2,2-dioxide and 7-((1R,3R,5S,6r)-6-(1-((S)-1,1-difluoropropan-2-yl)-3-(trifluoromethyl)-1H-pyrazol-5-yl)bicyclo[3.1.0]hexan-3-yl)-2-thia-7-azaspiro[3.5]nonane 2,2-dioxide], the EC50 in the assay with EpiSC-derived OPCs is 24 nM; in assay [2], 9.4 nM. Further, the Ki in assay [1] amounted to 55.3 nM.
In the same order, the values of `O=S1(=O)CC2(CCN([C@@H]3C[C@@H]4[C@H](C3)[C@H]4c3cc(C(F)(F)F)nn3CC(F)F)C2)C1` (single isomer, unassigned) [Compound 90*] are 190 nM, 21 nM and 70.5 nM.
In the same order, the values of `CC(C)(C)n1nc(C(F)(F)F)cc1[C@H]1[C@@H]2C[C@@H](N3CCC4(C3)CS(=O)(=O)C4)C[C@@H]21` (single isomer, unassigned) [Compound 57] are 18 nM, 3.5 nM and 26 nM.
In the same order, the values of `CCn1nc(-c2ccnc(C(F)(F)F)c2)cc1[C@H]1[C@@H]2C[C@H](N3CCC4(C3)CS(=O)(=O)C4)C[C@@H]21` [Compound 27, 6-((1R,3r,5S,6r)-6-(1-ethyl-3-(2-(trifluoromethyl)pyridin-4-yl)-1H-pyrazol-5-yl)bicyclo[3.1.0]hexan-3-yl)-2-thia-6-azaspiro[3.4]octane 2,2-dioxide] are 1.6 nM, 2.3 nM and 11.6 nM.
With `CC(C)(C)n1nc(-c2cccc(C(F)(F)F)c2)nc1[C@H]1[C@@H]2C[C@@H](N3CCC4(C3)CS(=O)(=O)C4)C[C@@H]21` (single isomer, unassigned) [Compound 75], the figures for the 50% effective concentration (EC50) (in the assay on EpiSC-derived OPCs; in assay [2]) were 6.2 nM and 2.2 nM, respectively. Moreover, the Ki in assay [1] is 14.9 nM.
Turning to `CC(C)n1nc(-c2cccc(C(F)(F)F)c2)cc1[C@H]1[C@@H]2C[C@H](N3CCC4(C3)CS(=O)(=O)C4)C[C@@H]21` (single isomer, unassigned) [Compound 1], the EC50 in the assay with EpiSC-derived OPCs was 1.3 nM; in assay [2], 1.2 nM. In assay [1], this compound yielded a Ki of 13.1 nM.
As to `CC(C)n1nc(-c2ccc(C(F)(F)F)nc2)cc1[C@H]1[C@@H]2C[C@H](N3CCC4(C3)CS(=O)(=O)C4)C[C@@H]21` (single isomer, unassigned) [Compound 14], the concentration giving a half-maximal response (EC50) in the assay with EpiSC-derived OPCs is 2.9 nM; in assay [2], 2 nM. The affinity in assay [1] corresponds to a Ki of 13 nM.
On the same counts, the results for `C[C@H](C(F)F)n1nc(C(F)(F)F)cc1[C@H]1[C@@H]2C[C@H](N3CCC4(CC3)CS(=O)(=O)C4)C[C@@H]21` (racemic) [Compound 71*, 7-((1R,3R,5S,6r)-6-(1-((R)-1,1-difluoropropan-2-yl)-3-(trifluoromethyl)-1H-pyrazol-5-yl)bicyclo[3.1.0]hexan-3-yl)-2-thia-7-azaspiro[3.5]nonane 2,2-dioxide and 7-((1R,3S,5S,6r)-6-(1-((S)-1,1-difluoropropan-2-yl)-3-(trifluoromethyl)-1H-pyrazol-5-yl)bicyclo[3.1.0]hexan-3-yl)-2-thia-7-azaspiro[3.5]nonane 2,2-dioxide] are 76 nM, 17 nM and 17.8 nM.
On the same counts, the results for `CC(C)n1nc(C(F)(F)F)cc1[C@H]1[C@@H]2C[C@H](N3CCC4(CC3)CS(=O)(=O)C4)C[C@@H]21` (single isomer, unassigned) [Compound 44*] are 14 nM, 6.8 nM and 27 nM.
On the same counts, the results for `CC(C)n1nc(C(F)(F)F)cc1[C@H]1[C@@H]2C[C@@H](N3CCC4(CC3)CS(=O)(=O)C4)C[C@@H]21` (single isomer, unassigned) [Compound 43*] are 48 nM, 11 nM and 50.3 nM.
`O=S1(=O)CC2(CCN([C@@H]3C[C@@H]4[C@H](C3)[C@H]4c3cc(C(F)(F)F)nn3CC(F)F)CC2)C1` (single isomer, unassigned) [Compound 62*]: the figures for the EC50 (in the assay on EpiSC-derived OPCs; in assay [2]) were 60 nM and 12 nM, respectively. Moreover, in assay [1], the affinity, expressed as Ki, was 134 nM.
In the same order, the values of `CC(C)(C)n1nc(C(F)(F)F)cc1[C@H]1[C@@H]2C[C@H](N3CCC4(C3)CS(=O)(=O)C4)C[C@@H]21` (single isomer, unassigned) [Compound 58] are 19 nM, 3.3 nM and 12 nM.
In the same order, the values of `CCn1nc(-c2cncc(C(F)(F)F)c2)cc1[C@H]1[C@@H]2C[C@H](N3CCC4(CC3)CS(=O)(=O)C4)C[C@@H]21` (single isomer, unassigned) [Compound 54*] are 31 nM, 9.1 nM and 32.8 nM.
In the same order, the values of `CC(C)n1nc(-c2cnc(C(F)(F)F)nc2)cc1[C@H]1[C@@H]2C[C@@H](N3CCC4(C3)CS(=O)(=O)C4)C[C@@H]21` (single isomer, unassigned) [Compound 102] are 64.6 nM, 14 nM and 42.5 nM.
As to `CC(C)n1nc(-c2cccc(C(F)(F)F)c2)nc1[C@H]1[C@@H]2C[C@@H](N3CCC4(C3)CS(=O)(=O)C4)C[C@@H]21` [Compound 51, 6-((1R,3s,5S,6r)-6-(1-Isopropyl-3-(3-(trifluoromethyl)phenyl)-1H-1,2,4-triazol-5-yl)bicyclo[3.1.0]hexan-3-yl)-2-thia-6-azaspiro[3.4]octane 2,2-dioxide], the EC50 stood at 37 nM with EpiSC-derived OPCs and 6.4 nM in assay [2]. The same compound yielded a Ki in assay [1] of 11.7 nM.
